Data: patent US20060194837A1, “Tetrahydroisoquinoline compounds” (priority 2004, published 2006)

Columns and labels:
human H3 receptor = biological target: T1, human H3 receptor (Homo sapiens, UniProt Q9Y5N1); test: H3 receptor binding (N-[3H]-α-methylhistamine displacement); conditions: membranes of SK-N-MC cells expressing cloned human H3 receptor, 0.8 nM N-[3H]-α-methylhistamine, 60 min at 25° C.
T1 construct: expressed in transfected cells
Method: Briefly, cell pellets from SK-N-MC cells expressing the human H3 receptor were homogenized in 50 mM Tris-HCl/5 mM EDTA and re-centrifuged at 30,000 g for 30 min. Pellets were re-homogenized in 50 mM Tris/6 mM EDTA (pH 7.4). Membranes were incubated with 0.8 nM N-[^3H]-α-methylhistamine plus/minus test compounds for 60 min at 25° C. and harvested by rapid filtration over GF/C glass fiber filters (pretreated with 0.3% polyethylenimine) followed by four washes with ice-cold buffer. Nonspecific binding was defined in the presence of 10 μM histamine.

Rat SERT = biological target: T2, Rat SERT (Rattus norvegicus, UniProt P31652); test: Rat brain SERT binding ([3H]-citalopram displacement); conditions: rat brain membranes without cerebellum, 0.6 nM [3H]-citalopram, 60 min at 25° C.; read-out: Rat SERT Ki
T2 construct: A rat brain without cerebellum (Zivic Laboratories, Inc.—Pittsburgh, Pa.) was homogenized; tissue Zivic Laboratories, Inc; host or cells: rat brain without cerebellum, membranes
T2 sequence (P31652 whole entry): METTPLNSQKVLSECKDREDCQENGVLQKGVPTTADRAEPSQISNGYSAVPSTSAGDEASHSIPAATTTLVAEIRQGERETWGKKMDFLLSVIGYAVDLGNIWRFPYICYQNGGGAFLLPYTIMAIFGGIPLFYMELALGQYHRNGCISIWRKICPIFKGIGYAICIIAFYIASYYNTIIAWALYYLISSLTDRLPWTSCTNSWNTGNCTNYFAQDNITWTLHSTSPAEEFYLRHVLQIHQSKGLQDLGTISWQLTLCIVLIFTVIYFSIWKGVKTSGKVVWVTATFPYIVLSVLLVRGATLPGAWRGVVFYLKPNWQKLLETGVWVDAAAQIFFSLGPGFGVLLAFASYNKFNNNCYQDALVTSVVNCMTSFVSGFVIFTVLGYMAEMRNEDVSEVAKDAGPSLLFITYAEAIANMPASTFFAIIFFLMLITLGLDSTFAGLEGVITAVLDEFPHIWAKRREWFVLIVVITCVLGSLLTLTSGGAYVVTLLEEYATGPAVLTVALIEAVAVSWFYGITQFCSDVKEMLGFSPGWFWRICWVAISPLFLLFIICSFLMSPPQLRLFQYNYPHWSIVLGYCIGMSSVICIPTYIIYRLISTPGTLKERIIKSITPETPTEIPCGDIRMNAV
Method: The supernatant was removed and re-centrifuged at 15,000 rpm for 30 min. […] Membranes were incubated with 0.6 nM [^3H]-Citalopram plus/minus test compounds for 60 min at 25° C. and harvested by rapid filtration over GF/C glass fiber filters (pretreated with 0.3% polyethylenimine) followed by four washes with ice-cold buffer.

T1 sequence (Q9Y5N1 whole entry): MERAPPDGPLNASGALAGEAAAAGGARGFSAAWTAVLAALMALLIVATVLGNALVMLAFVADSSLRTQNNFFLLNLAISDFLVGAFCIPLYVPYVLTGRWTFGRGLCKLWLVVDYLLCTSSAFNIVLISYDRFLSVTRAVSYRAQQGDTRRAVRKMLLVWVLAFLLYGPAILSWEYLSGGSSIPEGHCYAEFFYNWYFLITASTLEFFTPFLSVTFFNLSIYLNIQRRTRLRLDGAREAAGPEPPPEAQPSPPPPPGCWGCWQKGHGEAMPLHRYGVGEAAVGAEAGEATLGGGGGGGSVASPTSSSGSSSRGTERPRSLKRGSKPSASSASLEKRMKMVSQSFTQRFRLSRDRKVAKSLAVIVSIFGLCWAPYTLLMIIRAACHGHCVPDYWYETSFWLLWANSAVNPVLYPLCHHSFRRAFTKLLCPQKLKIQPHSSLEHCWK

Structure (SMILES)	Ki (human H3 receptor)	Ki (Rat SERT)
CSc1ccc(C2CN(C)Cc3cc(OC4CCN(C5CCOCC5)CC4)ccc32)cc1 (stereo not drawn) [Example 246, 2-Methyl-4-(4-methylsulfanyl-phenyl)-7-[1-(tetrahydro-pyran-4-yl)-piperidin-4-yloxy]-1,2,3,4-tetrahydro-isoquinoline]	0.003 µM	0.01 µM
COc1ccc(C2CN(C)Cc3cc(OCC4CN(C)CCO4)ccc32)cc1 (mixture of isomers) [Example 251, 4-(4-Methoxy-phenyl)-2-methyl-7-(4-methyl-morpholin-2-ylmethoxy)-1,2,3,4-tetrahydro-isoquinoline]	0.067 µM	0.012 µM
COc1ccc(C2CN(C)Cc3cc(OCC4CCNCC4)ccc32)cc1 (stereo not drawn) [Example 78, 4-(4-Methoxy-phenyl)-2-methyl-7-(piperidin-4-ylmethoxy)-1,2,3,4-tetrahydro-isoquinoline]	0.096 µM	0.002 µM
COc1ccc(C2CN(C)Cc3cc(OCC4CCN(C5CCC5)CC4)ccc32)cc1 (stereo not drawn) [Example 248, 7-(1-Cyclobutyl-piperidin-4-ylmethoxy)-4-(4-methoxy-phenyl)-2-methyl-1,2,3,4-tetrahydro-isoquinoline]	0.005 µM	0.007 µM
CSc1ccc(C2CN(C)Cc3cc(OC4CCN(CCC(F)(F)F)CC4)ccc32)cc1 (stereo not drawn) [Example 244, 2-Methyl-4-(4-methylsulfanyl-phenyl)-7-[1-(3,3,3-trifluoro-propyl)-piperidin-4-yloxy]-1,2,3,4-tetrahydro-isoquinoline]	0.129 µM	0.007 µM
COc1ccc(C2CN(C)Cc3cc(OCCCNCC(C)C)ccc32)cc1 (stereo not drawn) [Example 228, Isobutyl-{3-[4-(4-methoxy-phenyl)-2-methyl-1,2,3,4-tetrahydro-isoquinolin-7-yloxy]-propyl}-amine]	0.038 µM	0.001 µM
C#Cc1ccc(C2CN(C)Cc3cc(OCCCN4CCC(F)CC4)ccc32)cn1 (stereo not drawn) [Example 190, 4-(6-Ethynyl-pyridin-3-yl)-7-[3-(4-fluoro-piperidin-1-yl)-propoxy]-2-methyl-1,2,3,4-tetrahydro-isoquinoline]	0.029 µM	0.119 µM
COc1ccc(C2CN(CCCO)Cc3cc(OCCCN4CCCCC4)ccc32)cc1 (stereo not drawn) [Example 70, 3-[4-(4-Methoxy-phenyl)-7-(3-piperidin-1-yl-propoxy)-3,4-dihydro-1H-isoquinolin-2-yl]-propan-1-ol]	0.001 µM	0.049 µM
COc1ccc(C2CN(C)Cc3cc(OCC4CCN(CC(C)(C)O)CC4)ccc32)cc1 (stereo not drawn) [Example 250, 1-{4-[4-(4-Methoxy-phenyl)-2-methyl-1,2,3,4-tetrahydro-isoquinolin-7-yloxymethyl]-piperidin-1-yl}-2-methyl-propan-2-ol]	0.034 µM	0.004 µM
COc1ccc(C2CN(C)Cc3cc(OCCCN4CCN(CC5OCCO5)CC4)ccc32)cc1 (stereo not drawn) [Example 207, 7-[3-(4-[1,3]-Dioxolan-2-ylmethyl-piperazin-1-yl)-propoxy]-4-(4-methoxy-phenyl)-2-methyl-1,2,3,4-tetrahydro-isoquinoline]	0.078 µM	0.015 µM
COc1ccc(C2CN(C)Cc3cc(OCCCN(C)C(C)C)ccc32)cc1 (stereo not drawn) [Example 233, Isopropyl-{3-[4-(4-methoxy-phenyl)-2-methyl-1,2,3,4-tetrahydro-isoquinolin-7-yloxy]-propyl}-methyl-amine]	0.004 µM	0.003 µM
CCCN1Cc2cc(OCCCN3CCCCC3)ccc2C(c2ccc(OC)cc2)C1 (stereo not drawn) [Example 67, 4-(4-Methoxy-phenyl)-7-(3-piperidin-1-yl-propoxy)-2-propyl-1,2,3,4-tetrahydro-isoquinoline]	0.0005 µM	0.104 µM
COc1cccc(C2CN(C)Cc3cc(OC4CCN(C5CCC5)CC4)ccc32)c1 (stereo not drawn) [Example 99, 7-(1-Cyclobutyl-piperidin-4-yloxy)-4-(3-methoxy-phenyl)-2-methyl-1,2,3,4-tetrahydro-isoquinoline]	0.002 µM	0.02 µM
CCN1CCC(COc2ccc3c(c2)CN(C)CC3c2cccc(OC)c2)CC1 (stereo not drawn) [Example 95, 7-(1-Ethyl-piperidin-4-ylmethoxy)-4-(3-methoxy-phenyl)-2-methyl-1,2,3,4-tetrahydro-isoquinoline]	0.002 µM	0.015 µM
CN1Cc2cc(OCCCN3CCC(F)CC3)ccc2C(c2ccc(C#C[Si](C)(C)C)nc2)C1 (stereo not drawn) [Example 189, 7-[3-(4-Fluoro-piperidin-1-yl)-propoxy]-2-methyl-4-(6-trimethylsilanylethynyl-pyridin-3-yl)-1,2,3,4-tetrahydro-isoquinoline]	0.012 µM	0.108 µM
COc1ccc(C2CN(C)Cc3cc(OCCCN4CCC(F)CC4)ccc32)cc1F (single isomer, unassigned) [Example 144, 4-(3-Fluoro-4-methoxy-phenyl)-7-[3-(4-fluoro-piperidin-1-yl)-propoxy]-2-methyl-1,2,3,4-tetrahydro-isoquinoline]	0.006 µM	0.005 µM
CCCN1CCC(COc2ccc3c(c2)CN(C)CC3c2ccc(OC)c(Cl)c2)CC1 (stereo not drawn) [Example 108, 4-(3-Chloro-4-methoxy-phenyl)-2-methyl-7-(1-propyl-piperidin-4-ylmethoxy)-1,2,3,4-tetrahydro-isoquinoline]	0.012 µM	0.013 µM
COc1ccc(C2CN([C@H](C)c3ccccc3)Cc3cc(OCCCN4CCOCC4)ccc32)cc1 (single isomer, unassigned) [Example 75, 4-(4-Methoxy-phenyl)-7-(3-morpholin-4-yl-propoxy)-2-(1-phenyl-ethyl)-1,2,3,4-tetrahydro-isoquinoline]	0.014 µM	0.079 µM
COc1ccc(C2CN(C)Cc3cc(OCCCN=C4N(C)CCCN4C)ccc32)cc1 (stereo not drawn) [Example 15, (1,3-Dimethyl-tetrahydro-pyrimidin-2-ylidene)-{3-[4-(4-methoxy-phenyl)-2-methyl-1,2,3,4-tetrahydro-isoquinolin-7-yloxy]-propyl}-amine]	0.499 µM	0.011 µM
COc1ccc(C2CN(C)Cc3cc(OCCCN(C)c4nc5ccccc5s4)ccc32)cc1 (stereo not drawn) [Example 19, Benzothiazol-2-yl-{3-[4-(4-methoxy-phenyl)-2-methyl-1,2,3,4-tetrahydro-isoquinolin-7-yloxy]-propyl}-methyl-amine]	2 µM	0.008 µM
COc1ccc(C2CN(C)Cc3cc(OCCCN(C4CC4)C4CC4)ccc32)cc1 (stereo not drawn) [Example 235, Dicyclopropyl-{3-[4-(4-methoxy-phenyl)-2-methyl-1,2,3,4-tetrahydro-isoquinolin-7-yloxy]-propyl}-amine]	0.006 µM	0.007 µM
CN1Cc2cc(OCCCN3CCC(F)CC3)ccc2C(c2ccc(-n3ccnc3)nc2)C1 (stereo not drawn) [Example 192, 7-[3-(4-Fluoro-piperidin-1-yl)-propoxy]-4-(6-imidazol-1-yl-pyridin-3-yl)-2-methyl-1,2,3,4-tetrahydro-isoquinoline]	0.003 µM	0.009 µM
COc1ccc(C2CN(C)Cc3cc(OCCCN4CCN(C(=O)OC(C)(C)C)CC4)ccc32)cc1 (stereo not drawn) [Example 211, 4-{3-[4-(4-Methoxy-phenyl)-2-methyl-1,2,3,4-tetrahydro-isoquinolin-7-yloxy]-propyl}-piperazine-1-carboxylic acid tert-butyl ester]	0.823 µM	0.027 µM
CCOC(=O)C1CCN(CCCOc2ccc3c(c2)CN(C)CC3c2ccc(OC)cc2)CC1 (stereo not drawn) [Example 33, 1-{3-[4-(4-Methoxy-phenyl)-2-methyl-1,2,3,4-tetrahydro-isoquinolin-7-yloxy]-propyl}-piperidine-4-carboxylic acid ethyl ester]	0.172 µM	0.005 µM
CSc1ccc(C2CN(C)Cc3cc(OCCCN4CCCCC4)c(C)cc32)cc1 (stereo not drawn) [Example 270, 2,6-Dimethyl-4-(4-methylsulfanyl-phenyl)-7-(3-piperidin-1-yl-propoxy)-1,2,3,4-tetrahydro-isoquinoline]	0.006 µM	0.018 µM
COc1ccc(C2CN(C)Cc3cc(OCC4CCN(C(C)C)CC4)ccc32)c(F)c1 (stereo not drawn) [Example 90, 4-(2-Fluoro-4-methoxy-phenyl)-7-(1-isopropyl-piperidin-4-ylmethoxy)-2-methyl-1,2,3,4-tetrahydro-isoquinoline]		0.009 µM
COc1ccc(C2CN(C)Cc3cc(OCCCN4CCC(F)CC4)ccc32)c(F)c1 (racemic) [Example 139, 4-(2-Fluoro-4-methoxy-phenyl)-7-[3-(4-fluoro-piperidin-1-yl)-propoxy]-2-methyl-1,2,3,4-tetrahydro-isoquinoline]		0.006 µM
COc1ccc(C2CN(C)Cc3cc(OCCCN4CCC(F)CC4)ccc32)c(F)c1 (single isomer, unassigned) [Example 141, 4-(2-Fluoro-4-methoxy-phenyl)-7-[3-(4-fluoro-piperidin-1-yl)-propoxy]-2-methyl-1,2,3,4-tetrahydro-isoquinoline]		0.003 µM
COc1ccc(C2CN(C)Cc3cc(OCCCN4CCC(F)CC4)ccc32)c(F)c1 (single isomer, unassigned) [Example 140, 4-(2-Fluoro-4-methoxy-phenyl)-7-[3-(4-fluoro-piperidin-1-yl)-propoxy]-2-methyl-1,2,3,4-tetrahydro-isoquinoline]		0.028 µM
